In patent US20240391861A1, “PROCESS FOR THE RECOVERY OF MONOPOTASSIUM GLUCARATE AND GLUCARIC ACID” (Alliance for Sustainable Energy, LLC, priority 2021, published 2024):
≈ marks a conversion by molar mass, not a printed value.

Experiments:
[1] = 300 K, cited from earlier work
[2] = GA Solubility Test (TGA mass balance of saturated solution); format: physicochemical; details: 4° C.
Description: GA Solubility Test: Due to the lactonization potential of glucaric acid, the solubility was estimated using thermogravimetric analysis (TGA) based on the mass balance of the saturated solution. A sample of acetone-washed GA was dissolved in 3 mL of the IPA/water mixture (7:1 by mass) to excess, sonicated, and allowed to settle overnight at each of three temperatures: −20° C., 4° C. and 22° C. Next, the solutions were filtered at a pore size of 0.45 μm. These saturated solutions were dropped into an aluminum Differential Scanning calorimetry (DSC) pan and placed on dry ice to partially freeze them and slow the evaporation rate so that the mass of the total solution could be measured by TGA. The partially frozen solution was heated from room temperature at 5° C. per minute to 110° C. and held isothermally for 15 minutes to allow the solvent to evaporate. In this way, the mass of the remaining species in the pan was determined to μg precision. This was taken to be the total mass of GA that had dissolved in the solvent, including possible lactone products, in a catch-all method.

[3] = Enthalpy and entropy of dissolution from Van't Hoff plot of solubility versus temperature; format: physicochemical
Description: The enthalpy and entropy of dissolution of KGA and GA. The enthalpy and entropy of dissolution are calculated here using the solubility of KGA and GA in solutions of identical solvent composition as a function of temperature. The solubility of KGA and GA and related thermodynamic properties (enthalpy and entropy of dissolution) are important because they can be used for building a crystallization model and optimizing crystallization conditions in a large scale process. Accordingly, using the solubility data obtained for each compound (FIG. 2B), the enthalpy and entropy of dissolution of both KGA and GA were calculated using the Van't Hoff equation.
In Equation 1, x is the mole fraction of a compound in the solvent, Δ_dis H and Δ_dis S are the enthalpy and the entropy of dissolution, T is the absolute temperature, and R represents the ideal gas constant. The solubility of KGA or GA was measured by varying temperature to plot ln x versus 1/T, and the resulting values of enthalpy and entropy of dissolution was determined from the slope and the intercept, respectively.
The antisolvent loading in each mixture is the same as used in each purification process. Table 4 provides the dissolution enthalpy and entropy of both KGA and GA calculated from Eq. (1) using the linear fits in FIG. 5. […] The […] of GA solubility data yields a negative entropy of dissolution for GA. This could be because dissolved GA is in equilibrium with lactones, and they form dimers or organized structures that are represented by this value.

[4] = reported pKa value of glucaric acid; cited from earlier work
physchem = details: pH 1.5, aqueous buffer, thermodynamic from solid
Description: (§1) KGA Solubility Test: KGA solubility was quantified by adding excess KGA to UHP water and adjusting pH between 1-6 by addition of 2 M HCl or 2 M KOH with stirring. The samples were mixed, allowed to sit overnight, and then the pH was measured again. The samples were filtered, diluted with a pH 7 phosphate buffer to reduce lactonization and the KGA concentration was quantified by LC. Similarly, KGA solubility in a 25.2 wt. % acetone solution was measured by preparing KGA-saturated solution samples at −20° C., 22° C. and 40° C. and quantified by using the liquid chromatography (LC) method.
(§2) 15 μl samples were injected into a Phenomenex Luna C18(2) 5 μm, 150 mm×4.6 mm column at a temperature of 35° C. An isocratic mobile phase of 20 mM potassium phosphate at pH 7 was pumped at a flow rate of 0.65 mL/min for 7 min.

[5] = KGA Solubility Test (glucarate solubility at various pH in water and acetone/water, quantified by LC); details: for solubility: 22 °C, thermodynamic from solid
Description: as §1, §2

[6] = Reported pKa values of glucaric acid and molar speciation calculated from them; format: physicochemical; details: at pH 3.6, calculated from reported pKa values
Description: The inset photo is the KGA precipitate from broth pH adjusted to 3.5 (left) and broth pH adjusted to 3.5 with acetone 25 wt. % acetone addition (right).

## O=C(O)[C@@H](O)[C@H]1OC(=O)[C@H](O)[C@H]1O [1,4-lactone, D-glucaro-1,4-lactone]
[1]; 1,4-lactone → GA
  Rate constant k1: 7.04e-05 s⁻¹

## O=C1O[C@H]2[C@H](OC(=O)[C@@H]2O)[C@@H]1O [1,4:6,3-dilactone, D-glucaro-1,4:6,3-dilactone]
[1]; 1,4:6,3-dilactone → 6,3-lactone (so in the source)
  Rate constant k8: 5.01e-05 s⁻¹
[1]; 1,4:6,3-dilactone → 6,3-lactone
  Rate constant k6: 0.00197 s⁻¹

## O=C1O[C@H]([C@@H](O)C(=O)O)[C@H](O)[C@@H]1O [6,3-lactone, D-glucaro-6,3-lactone]
[1]; 6,3-lactone → 1,4:6,3-dilactone (so in the source)
  Rate constant k7: 0.000664 s⁻¹
[1]; 6,3-lactone → 1,4:6,3-dilactone
  Rate constant k5: 0.000174 s⁻¹
[1]; 6,3-lactone → GA
  Rate constant k4: 8.7e-05 s⁻¹

## O=C(O)[C@@H](O)[C@@H](O)[C@H](O)[C@@H](O)C(=O)O [GA, glucaric acid]
[2]
  solubility in IPA-water lower than that in ACN-water: 53%
  solubility in IPA-water lower than that in water: 77%
[3]; solvent Isopropanol 87.5 wt. %
  AdisH: 0.88 kcal/mol
  AdisS: −40.78 J/mol/K
pH 1.5
  higher solubility than KGA: 56%
pH 3.1
  solubility increase as pH is decreased: about 55%
[4]
  pKa1: 3.17
  pKa2: 3.96
[1]; GA → 1,4-lactone
  Rate constant k2: 4.84e-05 s⁻¹
[1]; GA → 6,3-lactone
  Rate constant k3: 5.52e-05 s⁻¹
physchem
  solubility: 26 mg/mL (≈ 124 mM)

## O=C([O-])[C@@H](O)[C@@H](O)[C@H](O)[C@@H](O)C(=O)[O-].[K+].[K+] [K2GA, dipotassium glucarate]
[5]; aqueous buffer
  solubility: > 120 mg/mL

## O=C(O)[C@@H](O)[C@@H](O)[C@H](O)[C@@H](O)C(=O)[O-].[K+] [KGA, monopotassium glucarate]
[6]
  maximum concentration (molar fraction) of KGA form: 55 mol %
[3]; solvent Acetone 24.7 wt. %
  AdisH: 7.639 kcal/mol
  AdisS: 35.70 J/mol/K
[5]; pH 3.5, aqueous buffer
  solubility: ~16 mg/mL
[5]; pH 3.5, aqueous with cosolvent or surfactant or cyclodextrin
  solubility: ~8.1 mg/mL
[5]; acetone 25 wt. %, pH 3.5
  additional reduction of solubility by adding acetone: 50%
[5]; fermentation broth, pH 3.5, acetone (30 vol %)
  solubility in broth: almost zero
[5]; high purity water, no pH adjustment
  saturation limit in high purity water: 0.06 M
[5]; pH 3.5
  solubility relative to the solubility of K2GA at pH 5.8: 13.5 mol %
